Assay results taken from patent US20220169629A1, “PESTICIDALLY ACTIVE DIAZINE-AMIDE COMPOUNDS” (SYNGENTA CROP PROTECTION AG, priority 2019, published 2022).

Experiments:
Format in all cases: in vivo
[1] = tested on: Plutella xylostella (diamond back moth); experiment: Example B5: Plutella xylostella (diamond back moth), artificial diet, 24-well, eggs; details: 192 h, application rate of 200 ppm, 8 days after infestation, read-out: control in at least one of the two categories (mortality or growth inhibition)
Procedure: Example B5: Plutella xylostella (Diamond Back Moth)
24-well microtiter plates with artificial diet were treated with aqueous test solutions prepared from 10′000 ppm DMSO stock solutions by pipetting. After drying, Plutella eggs were pipetted through a plastic stencil onto a gel blotting paper and the plate was closed with it. The samples were assessed for mortality and growth inhibition in comparison to untreated samples 8 days after infestation.

[2] = tested on: Plutella xylostella (diamondback moth); experiment: Example B10: Plutella xylostella (diamondback moth), 96-well artificial diet; details: 216 h, application rate of 500 ppm, 9 days after infestation, eggs/L1 larvae
Procedure: Example B10: Plutella xylostella (Diamondback Moth)
96-well microtiter plates containing artificial diet were treated with aqueous test solutions, prepared from 10′000 ppm DMSO stock solutions, by a liquid handling robot. After drying, eggs (˜30 per well) were infested onto a netted lid which was suspended above the diet. The eggs hatch and L1 larvae move down to the diet. The samples were assessed for mortality 9 days after infestation.

[3] = tested on: Diabrotica balteata (corn root worm); experiment: Example B1: Diabrotica balteata (corn root worm), sprayed maize sprouts, L2 larvae; details: 96 h, application rate of 200 ppm, 4 days after infestation, L2 larvae on maize sprouts, read-out: control in at least one of the two categories (mortality or growth inhibition)
Procedure: Example B1: Diabrotica Balteata (Corn Root Worm)
Maize sprouts placed onto an agar layer in 24-well microtiter plates were treated with aqueous test solutions prepared from 10′000 ppm DMSO stock solutions by spraying. After drying, the plates were infested with L2 larvae (6 to 10 per well). The samples were assessed for mortality and growth inhibition in comparison to untreated samples 4 days after infestation.

[4] = tested on: Chilo suppressalis (striped rice stemborer); experiment: Example B4: Chilo suppressalis (striped rice stemborer), artificial diet, L2 larvae; details: 144 h, application rate of 200 ppm, 6 days after infestation, L2 larvae on artificial diet, read-out: control in at least one of the three categories (mortality, anti-feeding or growth inhibition)
Procedure: Example B4: Chilo suppressalis (Striped rice stemborer)
24-well microtiter plates with artificial diet were treated with aqueous test solutions prepared from 10′000 ppm DMSO stock solutions by pipetting. After drying, the plates were infested with L2 larvae (6-8 per well). The samples were assessed for mortality, anti-feeding effect, and growth inhibition in comparison to untreated samples 6 days after infestation. Control of Chilo suppressalis by a test sample is given when at least one of the categories mortality, anti-feedant effect, and growth inhibition is higher than the untreated sample.

[5] = tested on: Spodoptera littoralis (Egyptian cotton leaf worm); experiment: Example B7: Spodoptera littoralis (Egyptian cotton leaf worm), sprayed cotton leaf discs, L1 larvae; details: foliar, 72 h, application rate of 200 ppm, 3 days after infestation, L1 larvae on cotton leaf discs, read-out: control in at least one of the three categories (mortality, anti-feeding or growth inhibition)
Procedure: Example B7: Spodoptera littoralis (Egyptian Cotton Leaf Worm)
Cotton leaf discs were placed onto agar in 24-well microtiter plates and sprayed with aqueous test solutions prepared from 10′000 ppm DMSO stock solutions. After drying the leaf discs were infested with five L1 larvae. The samples were assessed for mortality, anti-feeding effect, and growth inhibition in comparison to untreated samples 3 days after infestation. Control of Spodoptera littoralis by a test sample is given when at least one of the categories mortality, anti-feedant effect, and growth inhibition is higher than the untreated sample.

[6] = tested on: Euschistus heros (neotropical brown stink bug); experiment: Example B2: Euschistus heros (neotropical brown stink bug), sprayed soybean leaves, N2 nymphs; details: 120 h, application rate of 200 ppm, 5 days after infestation, N2 nymphs on soybean leaves, read-out: control in at least one of the two categories (mortality or growth inhibition)
Procedure: Example B2: Euschistus heros (Neotropical Brown Stink Bug)
Soybean leaves on agar in 24-well microtiter plates were sprayed with aqueous test solutions prepared from 10′000 ppm DMSO stock solutions. After drying the leaves were infested with N2 nymphs. The samples were assessed for mortality and growth inhibition in comparison to untreated samples 5 days after infestation.

[7] = tested on: Myzus persicae (green peach aphid); experiment: Example B6: Myzus persicae (green peach aphid), intrinsic activity; details: 120 h, test rate of 12 ppm, 5 days after infestation, sucrose solution, infested pea seedlings
Source text: Example B6: Myzus persicae (Green Peach Aphid): Intrinsic Activity
Test compounds prepared from 10′000 ppm DMSO stock solutions were applied by pipette into 24-well microtiter plates and mixed with sucrose solution. The plates were closed with a stretched Parafilm. A plastic stencil with 24 holes was placed onto the plate and infested pea seedlings were placed directly on the Parafilm. The infested plate was closed with a gel blotting paper and another plastic stencil and then turned upside down. The samples were assessed for mortality 5 days after infestation.

[8] = tested on: Spodoptera littoralis (Egyptian cotton leaf worm); experiment: Example B8: Spodoptera littoralis (Egyptian cotton leaf worm), uptake by lettuce roots from agar; details: 144 h, test rate of 12.5 ppm, 6 days after infestation, compound absorbed by lettuce roots, read-out: control in at least one of the three categories (mortality, anti-feeding, or growth inhibition)
Source text: Example B8: Spodoptera littoralis (Egyptian Cotton Leaf Worm)
Test compounds were applied by pipette from 10′000 ppm DMSO stock solutions into 24-well plates and mixed with agar. Lettuce seeds were placed onto the agar and the multi well plate was closed by another plate which contained also agar. After 7 days the compound was absorbed by the roots and the lettuce grew into the lid plate. The lettuce leaves were then cut off into the lid plate. Spodoptera eggs were pipetted through a plastic stencil onto a humid gel blotting paper and the lid plate was closed with it. The samples were assessed for mortality, anti-feedant effect and growth inhibition in comparison to untreated samples 6 days after infestation.

CC(NC(=O)c1cc(OCC(F)(F)F)cc(C(F)(F)F)c1)c1nccnc1-c1ccc(OCC(F)F)cn1 (centres unmarked) [Compound P15, N-[1-[3-[5-(2,2-difluoroethoxy)-2-pyridyl]pyrazin-2-yl]ethyl]-3-(2,2,2-trifluoroethoxy)-5-(trifluoromethyl)benzamide]
≥ 80%: percent control (mortality or growth inhibition) at 200 ppm [1] | mortality at 500 ppm [2] | percent control (mortality or growth inhibition) at 200 ppm [3] | control at 200 ppm [4] | percent control (mortality, anti-feeding or growth inhibition) at 200 ppm [5]

CC(NC(=O)c1cc(OC(F)F)cc(C(F)(F)F)c1)c1nccnc1-c1ccc(OCC(F)F)cn1 (centres unmarked) [Compound P13, N-[1-[3-[5-(2,2-difluoroethoxy)-2-pyridyl]pyrazin-2-yl]ethyl]-3-(difluoromethoxy)-5-(trifluoromethyl)benzamide]
≥ 80%: percent control (mortality or growth inhibition) at 200 ppm [1] | mortality at 500 ppm [2] | percent control (mortality or growth inhibition) at 200 ppm [3] | control at 200 ppm [4] | percent control (mortality, anti-feeding or growth inhibition) at 200 ppm [5]

CC(NC(=O)c1cc(OC(F)F)cc(C(F)(F)F)c1)c1nccnc1-c1ncc(OCC(F)(F)F)cn1 (centres unmarked) [Compound P3, 3-(difluoromethoxy)-N-[1-[3-[5-(2,2,2-trifluoroethoxy)pyrimidin-2-yl]pyrazin-2-yl]ethyl]-5-(trifluoromethyl)benzamide]
≥ 80%: percent control (mortality or growth inhibition) at 200 ppm [1] | percent control (mortality or growth inhibition) at 200 ppm [3] | percent control (mortality or growth inhibition) at 200 ppm [6] | control at 200 ppm [4] | mortality at 12 ppm [7] | percent control (mortality, anti-feeding or growth inhibition) at 200 ppm [5]

CC(NC(=O)c1cc(OCC(F)(F)F)cc(C(F)(F)F)c1)c1nccnc1-c1ncc(OCC(F)(F)F)cn1 (centres unmarked) [Compound P5, 3-(2,2,2-trifluoroethoxy)-N-[1-[3-[5-(2,2,2-trifluoroethoxy)pyrimidin-2-yl]pyrazin-2-yl]ethyl]-5-(trifluoromethyl)benzamide]
≥ 80%: percent control (mortality or growth inhibition) at 200 ppm [1] | percent control (mortality or growth inhibition) at 200 ppm [6] | control at 200 ppm [4] | percent control (mortality, anti-feeding or growth inhibition) at 200 ppm [5]

CC(NC(=O)c1cc(OCC(F)F)cc(C(F)(F)F)c1)c1nccnc1-c1ncc(OC(F)F)cn1 (centres unmarked) [Compound P27, 3-(2,2-difluoroethoxy)-N-[1-[3-[5-(difluoromethoxy)pyrimidin-2-yl]pyrazin-2-yl]ethyl]-5-(trifluoromethyl)benzamide]
≥ 80%: percent control (mortality or growth inhibition) at 200 ppm [1] | mortality at 500 ppm [2] | control at 200 ppm [4] | mortality at 12 ppm [7] | percent control (mortality, anti-feeding or growth inhibition) at 200 ppm [5]

CC(NC(=O)c1cc(OCC(F)F)cc(C(F)(F)F)c1)c1nccnc1-c1ncc(OCC(F)(F)F)cn1 (centres unmarked) [Compound P1, 3-(2,2-difluoroethoxy)-N-[1-[3-[5-(2,2,2-trifluoroethoxy)pyrimidin-2-yl]pyrazin-2-yl]ethyl]-5-(trifluoromethyl)benzamide]
≥ 80%: percent control (mortality or growth inhibition) at 200 ppm [1] | percent control (mortality or growth inhibition) at 200 ppm [6] | control at 200 ppm [4] | percent control (mortality, anti-feeding or growth inhibition) at 200 ppm [5]

C[C@H](NC(=O)c1cc(C(F)(F)F)cc(C(F)(F)F)c1)c1nccnc1-c1ccc(C#N)cn1 [Compound P34, N-[(1S)-1-[3-(5-cyano-2-pyridyl)pyrazin-2-yl]ethyl]-3,5-bis(trifluoromethyl)benzamide]
≥ 80%: percent control (mortality or growth inhibition) at 200 ppm [1] | mortality at 500 ppm [2] | percent control (mortality or growth inhibition) at 200 ppm [3] | percent control (mortality, anti-feeding or growth inhibition) at 12.5 ppm [8] | control at 200 ppm [4] | percent control (mortality, anti-feeding or growth inhibition) at 200 ppm [5]

CC(NC(=O)c1cc(OCC(F)(F)F)cc(C(F)(F)F)c1)c1nccnc1-c1ccc(C#N)cn1 (centres unmarked) [Compound P25, N-[1-[3-(5-cyano-2-pyridyl)pyrazin-2-yl]ethyl]-3-(2,2,2-trifluoroethoxy)-5-(trifluoromethyl)benzamide]
≥ 80%: percent control (mortality or growth inhibition) at 200 ppm [1] | mortality at 500 ppm [2] | percent control (mortality or growth inhibition) at 200 ppm [3] | control at 200 ppm [4] | percent control (mortality, anti-feeding or growth inhibition) at 200 ppm [5]

CC(NC(=O)c1cc(SC(F)(F)F)cc(C(F)(F)F)c1)c1nccnc1-c1ncc(OCC(F)F)cn1 (centres unmarked) [Compound P29, N-[1-[3-[5-(2,2-difluoroethoxy)pyrimidin-2-yl]pyrazin-2-yl]ethyl]-3-(trifluoromethyl)-5-(trifluoromethylsulfanyl)benzamide]
≥ 80%: percent control (mortality or growth inhibition) at 200 ppm [1] | mortality at 500 ppm [2] | percent control (mortality or growth inhibition) at 200 ppm [3] | control at 200 ppm [4] | percent control (mortality, anti-feeding or growth inhibition) at 200 ppm [5]

CC(NC(=O)c1cc(Br)cc(C(F)(F)F)c1)c1nccnc1-c1ccc(OCC(F)F)cn1 (centres unmarked) [Compound P19, 3-bromo-N-[1-[3-[5-(2,2-difluoroethoxy)-2-pyridyl]pyrazin-2-yl]ethyl]-5-(trifluoromethyl)benzamide]
≥ 80%: percent control (mortality or growth inhibition) at 200 ppm [1] | mortality at 500 ppm [2] | percent control (mortality or growth inhibition) at 200 ppm [3] | control at 200 ppm [4] | percent control (mortality, anti-feeding or growth inhibition) at 200 ppm [5]

CC(NC(=O)c1cc(C(F)(F)F)cc(C(F)(F)F)c1)c1nccnc1-c1ncc(OCC(F)F)cn1 (centres unmarked) [Compound P33, N-[1-[3-[5-(2,2-difluoroethoxy)pyrimidin-2-yl]pyrazin-2-yl]ethyl]-3,5-bis(trifluoromethyl)benzamide]
≥ 80%: percent control (mortality or growth inhibition) at 200 ppm [1] | percent control (mortality or growth inhibition) at 200 ppm [3] | percent control (mortality or growth inhibition) at 200 ppm [6] | control at 200 ppm [4] | percent control (mortality, anti-feeding or growth inhibition) at 200 ppm [5]

CC(NC(=O)c1cc(Cl)cc(C(F)(F)F)c1)c1nccnc1-c1ccc(OCC(F)(F)F)cn1 (centres unmarked) [Compound P21, 3-chloro-N-[1-[3-[5-(2,2,2-trifluoroethoxy)-2-pyridyl]pyrazin-2-yl]ethyl]-5-(trifluoromethyl)benzamide]
≥ 80%: percent control (mortality or growth inhibition) at 200 ppm [1] | mortality at 500 ppm [2] | percent control (mortality or growth inhibition) at 200 ppm [3] | control at 200 ppm [4] | percent control (mortality, anti-feeding or growth inhibition) at 200 ppm [5]

CC(NC(=O)c1cc(OCC(F)(F)F)cc(C(F)(F)F)c1)c1nccnc1-c1ncc(OC(F)F)cn1 (centres unmarked) [Compound P30, N-[1-[3-[5-(difluoromethoxy)pyrimidin-2-yl]pyrazin-2-yl]ethyl]-3-(2,2,2-trifluoroethoxy)-5-(trifluoromethyl)benzamide]
≥ 80%: percent control (mortality or growth inhibition) at 200 ppm [1] | mortality at 500 ppm [2] | percent control (mortality or growth inhibition) at 200 ppm [3] | control at 200 ppm [4] | percent control (mortality, anti-feeding or growth inhibition) at 200 ppm [5]
